Reference: patent US5821386A (priority 1997, dated 1998)
Values joined by “and” are separate entries in the source; they are usually repeats but may differ in a detail not shown here. Equal entries are not always repeated. “Also recorded” adds a separate entry of the source. Where two headings read alike, the source gives them in different places.

What was measured:
[1] = Dose response study of induced locomotor stimulation (Example 2, Table I); format: in vivo, male Swiss-Webster mice; settings: IP; for Maximal Effect Relative to Cocaine / ED50: Table I; for ED50: Mus musculus, 30-60 minutes period, read-out: ED50 (dose producing 1/2 maximal stimulant activity)
[2] = molecular target: T1, human serotonin transporter (Homo sapiens, UniProt P31645); experiment: [125I]RTI-55 binding to serotonin transporter, HEK-hSERT cells
T1 construct: expressed in transfected cells; host or cells: HEK cells (HEK-hSERT)
T1 sequence (P31645 whole entry): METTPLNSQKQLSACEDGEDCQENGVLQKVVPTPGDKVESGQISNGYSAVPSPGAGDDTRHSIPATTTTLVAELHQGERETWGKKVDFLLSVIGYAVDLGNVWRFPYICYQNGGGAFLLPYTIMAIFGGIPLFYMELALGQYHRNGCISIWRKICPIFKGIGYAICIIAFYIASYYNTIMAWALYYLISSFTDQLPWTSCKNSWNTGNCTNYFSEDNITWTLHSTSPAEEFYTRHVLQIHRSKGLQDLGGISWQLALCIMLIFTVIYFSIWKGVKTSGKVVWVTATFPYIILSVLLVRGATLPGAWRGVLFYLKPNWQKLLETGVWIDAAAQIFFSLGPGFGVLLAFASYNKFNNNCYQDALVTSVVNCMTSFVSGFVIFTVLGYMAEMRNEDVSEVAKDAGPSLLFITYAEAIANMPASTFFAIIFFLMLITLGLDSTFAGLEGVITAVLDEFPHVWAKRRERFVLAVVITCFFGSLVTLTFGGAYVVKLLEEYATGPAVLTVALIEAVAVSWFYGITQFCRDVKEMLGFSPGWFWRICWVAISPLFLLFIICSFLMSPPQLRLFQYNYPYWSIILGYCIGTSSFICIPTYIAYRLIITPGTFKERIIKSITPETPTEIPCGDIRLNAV

[3] = molecular target: T2, human norepinephrine transporter (Homo sapiens, UniProt P23975); experiment: biochemical; format: binding
T2 construct: expressed in transfected cells; host or cells: HEK cells (HEK-hNET)
T2 sequence (P23975 whole entry): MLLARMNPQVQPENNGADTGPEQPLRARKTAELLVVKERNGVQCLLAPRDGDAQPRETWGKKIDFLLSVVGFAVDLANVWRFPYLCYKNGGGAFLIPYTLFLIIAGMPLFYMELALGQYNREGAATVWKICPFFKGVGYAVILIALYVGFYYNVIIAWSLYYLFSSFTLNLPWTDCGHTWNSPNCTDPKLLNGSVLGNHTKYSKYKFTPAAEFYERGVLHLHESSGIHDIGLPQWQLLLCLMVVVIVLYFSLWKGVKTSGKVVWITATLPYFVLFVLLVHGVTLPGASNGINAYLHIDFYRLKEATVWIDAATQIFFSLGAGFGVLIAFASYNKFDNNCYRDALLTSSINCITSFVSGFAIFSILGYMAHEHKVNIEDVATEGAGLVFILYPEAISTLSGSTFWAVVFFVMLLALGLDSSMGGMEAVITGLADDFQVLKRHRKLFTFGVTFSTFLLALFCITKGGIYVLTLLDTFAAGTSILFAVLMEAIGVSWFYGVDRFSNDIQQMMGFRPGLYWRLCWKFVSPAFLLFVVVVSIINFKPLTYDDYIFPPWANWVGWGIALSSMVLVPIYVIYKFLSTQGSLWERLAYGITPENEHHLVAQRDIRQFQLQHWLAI

[4] = molecular target: T1, human serotonin transporter; experiment: [3H]serotonin uptake by HEK-hSERT cells; format: cell-based; settings: for inhibition of serotonin reuptake: Example 5; for IC50: Inhibition of 5HT uptake, IC50, HEK-hSERT cells; for 5HT uptake/binding: ratio; for 5HT/DA uptake: selectivity ratio
[5] = molecular target: T2, human norepinephrine transporter; experiment: cell-based; format: cell-based
[6] = molecular target: T3, human dopamine transporter (Homo sapiens, UniProt Q01959); experiment: [3H]dopamine uptake by C6-hDAT cells; settings: for IC50: Inhibition of DA uptake, IC50, C6-hDAT cells; for DA uptake/binding: ratio
T3 sequence (Q01959 whole entry): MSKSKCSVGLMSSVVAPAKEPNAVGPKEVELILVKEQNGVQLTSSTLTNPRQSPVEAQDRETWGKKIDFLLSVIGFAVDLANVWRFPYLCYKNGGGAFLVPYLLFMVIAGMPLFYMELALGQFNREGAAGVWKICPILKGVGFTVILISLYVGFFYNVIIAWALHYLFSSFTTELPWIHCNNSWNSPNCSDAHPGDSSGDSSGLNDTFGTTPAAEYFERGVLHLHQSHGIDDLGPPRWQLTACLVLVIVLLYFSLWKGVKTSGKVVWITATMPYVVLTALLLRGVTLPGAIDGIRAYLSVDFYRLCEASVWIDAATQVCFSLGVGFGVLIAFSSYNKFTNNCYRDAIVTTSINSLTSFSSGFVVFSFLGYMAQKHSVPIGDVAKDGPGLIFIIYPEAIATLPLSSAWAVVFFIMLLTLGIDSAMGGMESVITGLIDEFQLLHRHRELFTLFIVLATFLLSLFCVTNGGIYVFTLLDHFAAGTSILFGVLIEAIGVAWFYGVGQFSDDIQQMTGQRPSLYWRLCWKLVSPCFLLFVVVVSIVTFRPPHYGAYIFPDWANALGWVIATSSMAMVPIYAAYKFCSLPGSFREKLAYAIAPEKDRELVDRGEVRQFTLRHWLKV
Protocol: Drugs (10 mM stock solution) were dissolved in DMSO. The final DMSO concentration in the assay is 0.01 percent. Pipetting was performed with a Biomek 2000 robotic work station.
Uptake was initiated with the addition of [3H]DA (20 nM, specific acitivity 20-53 Ci/mmol) in a final volume of 500 μl. Mazindol (5 μM) was used to define nonspecific uptake. Cells were preincubated for 10 minutes, with drug before addition of neurotransmitter. Uptake was terminated after a 2 minute incubation by removing buffer, and the plate was placed on ice and washed twice with 1 ml ice cold phosphate-buffered saline.

[7] = molecular target: T3, human dopamine transporter; experiment: [125I]RTI-55 binding to dopamine transporter, C6-hDAT cells; parameters: expressed in transfected cells; host or cells: C6 cells (C6-hDAT); settings: read-out: Binding to DA cloned transporter, [I125]RTI-55 Ki
[8] = Interaction study: antagonism of cocaine-induced locomotor stimulation (Example 3); settings: for effect on the stimulant effect of cocaine (words): IP, 20 mg/kg cocaine, mice; for p, one-way ANOVA, overall effect for treatment groups: log10 horizontal activity counts, 0-30 minutes
[9] = Eight hour time course of locomotor stimulation, cocaine alone and Compound 2 alone (Example 4); settings: for p, two-way ANOVA, effect of Treatment: horizontal activity counts/10 min, eight hours; for p, one-way ANOVA, effect of Treatment: log10 horizontal activity counts
[10] = human, hek-hnet and c6-hdat cells
[11] = HEK-hNET cells, read-out: Binding to NE cloned transporter, [I125]RTI-55 Ki
[12] = HEK-hNET cells, read-out: Inhibition of NE uptake, IC50
[13] = IP, 10, 20 and 40 mg/kg cocaine

SMILES	Maximal Effect Relative to Cocaine [1]	ED50 ([1]; mice) [mg/kg]	Ki [2] [nM]	IC50 [4]	5HT uptake/binding [4]	5HT/DA uptake [4]	NE/DA uptake [5, 10]	NE uptake/binding ([5]; human, hek-hnet cells)	IC50 [6]	DA uptake/binding [6]	Ki [7] [nM]	IC50 [5, 12]	effect on the stimulant effect of cocaine (words) ([8]; 20 mg/kg)	p, one-way ANOVA, overall effect for treatment groups [8]	other results
CN(C)C1CC(c2ccc(Cl)c(Cl)c2)c2ccccc21 (stereo not shown) [Compound 1]	0.82	4.88	3.1 ± 1.2	6.7 ± 2.2 nM	2.2	0.035	0.38	0.19	190 ± 20 nM	6.6	29 ± 6	–	–	–	Ki ([3]; Binding to NE cloned transporter, [I125]RTI-55 Ki): 370 ± 60 nM; inhibition of serotonin reuptake [4]: selectively inhibits serotonin and norepinephrine reuptake; inhibition of norepinephrine reuptake [5]: selectively inhibits serotonin and norepinephrine reuptake; IC50 ([5]; Inhibition of NE uptake, IC50): 72 ± 40 nM
CCNC1CC(c2ccc(Cl)c(Cl)c2)c2ccccc21 (stereo not shown) [Compound 4]	1.07	3.9	2 ± 0.8	13 ± 4 nM	6.5	0.21	–	–	61 ± 12 nM	7.5	–	–	–	–	–
CCCN(C)C1CC(c2ccc(Cl)c(Cl)c2)c2ccccc21 (stereo not shown) [Compound 2]	0.51	5.65	44 ± 6	190 nM and 1500 nM	–	–	1.9 and 2.2	1.6	340 nM and 190 nM	1.4 and 1.1	180 ± 100	640 nM and 420 nM	antagonized the stimulant effect of cocaine	> 0.05	Ki [3, 11]: 400 nM and 260 nM; inhibition of serotonin reuptake [4]: reduced inhibition of serotonin and norepinephrine reuptake; inhibition of norepinephrine reuptake ([5]; Example 5): reduced inhibition of serotonin and norepinephrine reuptake; effect on the stimulant effect of cocaine (words) ([8]; listed as Compounds 2, 20 mg/kg): Block the Effects of Cocaine in Mice; dose at maximum effect ([9]; Compound 2 IP, 280-310 min): 12.9 mg/kg; maximum effect estimated from fitted dose-response curve ([9]; Compound 2 IP, 280-310 min, vehicle constant 399): 4581 counts/10 min; duration of stimulant effects ([9]; IP, Compound 2, 3 to 30 mg/kg): Up to Seven; p, two-way ANOVA, effect of Treatment [9]: < 0.001; p, one-way ANOVA, effect of Treatment ([9]; 280-310 min): < 0.001
COC(=O)[C@H]1[C@@H](OC(=O)c2ccccc2)C[C@@H]2CC[C@H]1N2C [cocaine]	–	–	–	–	–	–	–	–	–	–	–	–	–	–	time of maximal stimulant effects ([9]; IP, 20 mg/kg cocaine): during the first 30 minutes; duration of stimulant effects [9, 13]: up to 3 hours; onset of stimulant effects [9, 13]: ≤ 10 min; dose at maximum effect ([9]; cocaine IP, first 30 minutes): 18.3 mg/kg; maximum effect estimated from fitted dose-response curve ([9]; cocaine IP, first 30 minutes, vehicle constant 3172): 6059 counts/10 min; p, two-way ANOVA, effect of Treatment [9]: 0.089; p, one-way ANOVA, effect of Treatment ([9]; 0-30 min): < 0.001
CN(C1CC(c2ccc(Cl)c(Cl)c2)c2ccccc21)C(C)(C)C (stereo not shown) [Compound 7]	–	–	–	> 10000 nM	–	–	–	–	2700 ± 1500 nM	3.0	–	–	Block the Effects of Cocaine in Mice; also recorded: antagonized the stimulant effect of cocaine; also recorded: lock the effects of cocaine in laboratory mice	< 0.5	effect on locomotor activity ([1]; mice): inhibited locomotor activity; also recorded: reducing locomotor activity
CN(Cc1ccccc1)C1CC(c2ccc(Cl)c(Cl)c2)c2ccccc21 (stereo not shown) [Compound 10]	–	–	–	3700 ± 1300 nM	21.	6.7	–	–	550 ± 200 nM	4.6	–	–	–	–	–
CC(C)(C)NC1CC(c2ccc(Cl)c(Cl)c2)c2ccccc21 (stereo not shown) [Compound 6]	–	506	–	3100 ± 1200 nM	4.2	8.4	–	–	370 ± 170 nM	2.8	–	310 ± 50 nM	Block the Effects of Cocaine in Mice; also recorded: antagonized the stimulant effect of cocaine	< 0.5	NE uptake/binding ([5]; ratio): 2.1; NE/DA uptake ([5]; selectivity ratio): 0.84
CCN(C)C1CC(c2ccc(Cl)c(Cl)c2)c2ccccc21 (stereo not shown) [Compound 3]	0.93	10.8	–	24 ± 7 nM	1.5	0.10	–	–	270 ± 30 nM	6.9	–	–	–	–	–
CC(C)N(C)C1CC(c2ccc(Cl)c(Cl)c2)c2ccccc21 (stereo not shown) [Compound 8]	–	–	–	–	–	–	–	–	53 ± 1 nM	0.24	220 ± 40	–	–	–	–
CCCNC1CC(c2ccc(Cl)c(Cl)c2)c2ccccc21 (stereo not shown) [Compound 9]	–	–	93 ± 9	240 ± 70 nM	2.6	4.7	1.5	0.68	51 ± 21 nM	1.6	32 ± 6	75 ± 35 nM	–	–	Ki [3, 11]: 110 ± 50 nM
